The EC50 is the concentration needed to bring the measured effect to its halfway point.

The experiment relates to AMPA receptors. Put plainly: AMPA ES cell FLIPR screen (AMPA potentiator assay). The conditions noted are these: murine ES cell-derived neurons, FLIPR Fluo-4 calcium, 32 uM AMPA challenge; * = geometric mean of 2 EC50 determinations. It counts as cell-based. How it is done: The murine ES cell line used was E14-Sx1-16C, which has a targeted mutation in the Sox1 gene, a neuroectodermal marker, that offers G418 resistance when the Sox1 gene is expressed (Stem Cell Sciences). ES cells were maintained undifferentiated as previously described (Roach). […] ES cells were plated on gelatin-coated dishes (BD Biosciences), the media was changed daily and the cells were dissociated with 0.05% Trypsin EDTA (Invitrogen) every other day.
Embryoid Body Formation: Prior to embryoid body (EB) formation the ES cells were weaned from FBS onto Knockout Serum Replacement (KSR) (Invitrogen). To form EBs, ES cells were dissociated into a single cell suspension, then 3×10^6 cells were plated in bacteriology dishes (Nunc 4014) and grown as a suspension culture in NeuroEB-I medium that consisted of Knockout™ D-MEM (Invitrogen), supplemented with 10% KSR (Invitrogen), 0.2 mM L-Glutamine (Invitrogen), 0.1 mM MEM non-essential amino acids (Invitrogen), 30 μg/ml Gentamicin (Invitrogen), 1000 u/ml ESGRO (Chemicon), 0.1 mM 2-Mercaptoethanl (Sigma) and 150 ng/ml Transferrin (Invitrogen). The plates were put on a Stovall Belly Button shaker in an atmospheric oxygen incubator. The media was changed on day 2 of EB formation with NeuroEB-I and on day 4 with NeuroEB-II (NeuroEB-I plus 1 μg/ml mNoggin [R&D Systems]).
Neuronal Precursor Selection and Expansion: On day 5 of EB formation, EBs were dissociated with 0.05% Trypsin EDTA, and 4×10^6 cells/100 mm dish were plated on Laminin coated tissue culture dishes in Neuroll-G418 medium that consisted of a base medium of a 1:1 mixture of D-MEM/F12 supplemented with N2 supplements and NeuroBasal Medium supplemented with B27 supplement and 0.1 mM L-Glutamine (all from Invitrogen). The base medium was then supplemented with 10 ng/ml bFGF (Invitrogen), 1 μg/ml mNoggin, 500 ng/ml SHH—N, 100 ng/ml FGF-8b (R&D Systems), 1 μg/ml Laminin and 200 μg/ml G418 (Invitrogen) for selection of neuronal precursors expressing Sox-1. The plates were put in an incubator that contained 2% Oxygen and were maintained in these conditions. During the 6-day selection period, the Neuroll media was changed daily. On day 6, the surviving neuronal precursor foci were dissociated with 0.05% Trypsin EDTA and the cells were plated at a density of 1.5×10^6 cells/100 mm Laminin coated dish in Neuroll-G418 medium. The cells were dissociated every other day for expansion, and prepared for Cryopreservation at passage 3 or 4. The crypreservation medium contained 50% KSR, 10% Dimethyl Sulfoxide (DMSO) (Sigma) and 40% Neurol-G418I medium. Neuronal precursors were cryopreserved at a concentration of 4×10^6 cells/ml and 1 ml/cryovial in a controlled rate freezer overnight then transferred to an ultra-low freezer or liquid nitrogen for long-term storage. […]
Turning to `CC(C)S(=O)(=O)N[C@@H]1COC[C@@]1(O)c1ccc(-c2ccccc2)cc1` (stereo in doubt) [Example 4, N-[(3R,4R)-4-biphenyl-4-yl-4-hydroxytetrahydrofuran-3-yl]propane-2-sulfonamide], the EC50 was above 31.6 µM.

Regarding `CC(C)S(=O)(=O)N[C@H]1COC[C@]1(O)c1ccc(-c2ccc(C#N)s2)cc1` [Example 1, N-{(3S,4S)-4-[4-(5-cyano-2-thienyl)phenyl]-4-hydroxytetrahydrofuran-3-yl}propane-2-sulfonamide], the EC50 came out at 5.93 µM.

Consider `CC(C)S(=O)(=O)N[C@@H]1COC[C@@]1(O)c1ccc(-c2ccc(C#N)s2)cc1` [Example 2, N-{(3R,4R)-4-[4-(5-cyano-2-thienyl)phenyl]-4-hydroxytetrahydrofuran-3-yl}propane-2-sulfonamide], for which the EC50 is above 31.6 µM.

With `CC(C)S(=O)(=O)N[C@H]1COC[C@]1(O)c1ccc(-c2ccccc2)cc1` [Example 3, N-[(3S,4S)-4-biphenyl-4-yl-4-hydroxytetrahydrofuran-3-yl]propane-2-sulfonamide], the EC50 is 1.19 µM.

For the origin of these results see patent US20110178165A1, “TETRAHYDROFURANYL SULFONAMIDES AND PHARMACEUTICAL COMPOSITIONS THEREOF” (Pfizer Inc., priority 2008, published 2011).
